Reference: paper PMC3438292 (Journal of medicinal chemistry, 2010)

Columns and labels:
[1] = tested on: 5-HT2B receptor; details: cited from earlier work
[2] = target: 5-HT2B receptors (Homo sapiens, UniProt P41595); experiment: 5-HT2B functional assays at the PDSP; type: cell-based; details: among the 9 5-HT2B ligands
5-HT2B receptors, sequence (P41595 whole entry): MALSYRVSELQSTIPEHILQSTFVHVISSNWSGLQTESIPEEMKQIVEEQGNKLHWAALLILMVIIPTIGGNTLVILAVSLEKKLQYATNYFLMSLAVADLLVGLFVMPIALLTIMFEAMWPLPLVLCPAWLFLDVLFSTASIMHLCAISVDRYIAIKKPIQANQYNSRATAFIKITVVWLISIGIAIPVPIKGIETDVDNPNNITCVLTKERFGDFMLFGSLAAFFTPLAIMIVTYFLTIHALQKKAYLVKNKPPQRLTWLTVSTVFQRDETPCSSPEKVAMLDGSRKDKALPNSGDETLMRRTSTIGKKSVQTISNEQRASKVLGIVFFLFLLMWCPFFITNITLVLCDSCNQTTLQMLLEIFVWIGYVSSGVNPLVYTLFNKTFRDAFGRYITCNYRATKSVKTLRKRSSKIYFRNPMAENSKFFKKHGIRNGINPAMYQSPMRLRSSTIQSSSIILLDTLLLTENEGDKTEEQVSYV

SMILES	activation of 5-HT2B receptors [1]	agonist activity in 5-HT2B functional assays [2]
CN1C[C@H](C(=O)N[C@]2(C)O[C@@]3(O)[C@@H]4CCCN4C(=O)[C@H](Cc4ccccc4)N3C2=O)C=C2c3cccc4[nH]cc(c34)C[C@H]21 [ergotamine]	potently activate	
CCNC(C)Cc1cccc(C(F)(F)F)c1 (stereo not drawn) [Fenfluramine]	potently activate	
CC[C@@H](CO)NC(=O)[C@@H]1C=C2c3cccc4[nH]cc(c34)C[C@H]2N(C)C1 [Methylergonovine]	potently activate	
CC[C@@H](CO)NC(=O)[C@@H]1C=C2c3cccc4[nH]cc(c34)C[C@H]2N(C)C1 [Compound 7, methylergometrine]		strong agonist activity
CC(N)Cc1cccc(C(F)(F)F)c1 (stereo not drawn) [norfenfluramine]	potently activate	
CCCN1C[C@H](CSC)C[C@@H]2c3cccc4[nH]cc(c34)C[C@H]21 [Pergolide]	potently activate	
